As usually defined, the IC50 is the point on the concentration scale where inhibition reaches its midpoint.

The subject of this experiment is phosphorylation of Serine-9 residue in Glycogen Synthase Kinase-3beta as surrogate marker of cellular PKB (Akt) activity. As to the kind of experiment: In vitro MDA-MB-468 human breast adenocarcinoma GSK-3 phosphorylation assay. It is filed as cell-based. The source says: This assay determines the ability of test compounds to inhibit phosphorylation of Serine-9 residue in Glycogen Synthase Kinase-3beta (GSK-313) as a surrogate marker of cellular PKB (Akt) activity, as assessed using Acumen Explorer Fluorescent Plate-Reader technology. A MDA-MB-468 human breast adenocarcinoma cell line (LGC Promochem, Teddington, Middlesex, UK, Catalogue No. HTB-132) was routinely maintained in Dulbecco's modified Eagle's growth medium (DMEM; Invitrogen Limited, Paisley, UK Catalogue No. 11966-025) containing 10% heat-inactivated foetal calf serum (FCS; Sigma, Poole, Dorset, UK, Catalogue No. F0392) and 1% L-glutamine (Gibco, Catalogue No. 25030-024) at 37° C. with 5% CO2 up to a confluency of 70-90%.
For the phosphorylation assay, the cells were detached from the culture flask using Trypsin-EDTA (Invitrogen Limited, Catalogue No. 25300-062) and seeded into the wells of a black transparent-bottom Corning Costar Polystyrene 96 well plate (Fisher Scientific UK, Loughborough, Leicestershire, UK; Catalogue No. 3904 and DPS-130-020K) at a density of 5000 cells per well in 100 μl of complete growth media. The cells were incubated overnight at 37° C. with 5% CO2 to allow them to adhere.
On day 2, the cells were treated with test compounds and incubated for 2 hours at 37° C. with 5% CO2. Test compounds were prepared as 10mM stock solutions in DMSO and dosed directly to required concentration into test wells using non-contact (acoustic dispensing of multiple 2.5 nl droplets directly into assay wells) ECHO dosing technology (Labcyte Inc Sunnyvale, Calif., USA). Each plate contained control wells without test compound.
20 μl of fixing buffer (Phosphate Buffered Saline (PBS) containing 10% formaldehyde; Sigma; Catalogue No. F1635) was then added to each well to give a final well concentration 1.6%. Plates were then incubated for 30 minutes at room temperature prior to the fixative being removed. Each well was washed once with 250 μl of PBS and then 50 μl PBS added to each well. PBS was then aspirated and cells permeabilised and blocked by incubating each well with 50 μl of permeabilisation/blocking buffer (PBS containing 0.5% Tween 20 (Sigma; Catalogue No. P5927) and 5% Marvel Milk Powder (Andrews Pharmacy Ltd, Macclesfield, Cheshire, UK; Catalogue No. APC100199)) for 1 hour at room temperature prior to staining.
Following removal of Perm/Block buffer, 50 μl of primary anti-phospho-GSK-3β antibody (Cell Signalling Technology (New England Biolabs (Uk) Ltd.), Hitchin, Hertfordshire, UK; Catalogue No.9336 diluted 1:400 in Blocking buffer (PBS containing 5% Marvel and 0.05% Tween/Polysorbate 20) was added to each well and incubated overnight at 4° C.
Each well was washed three times in 250 μl of wash buffer (PBS containing 0.05% polysorbate 20), and cells incubated for 1 hour at room temperature with 50 μl of secondary fluorescently-labelled anti-rabbit Alexa Fluor 488 antibody (Molecular Probes, Invitrogen Limited, Catalogue No. A11008) diluted 1:750 in blocking buffer. Plates were washed three times in 250 μl of wash buffer and stored containing 50 μl of PBS at 4° C. until required.
Plates were analysed using an Acumen Explorer Plate-reader to quantify level of fluorescent signal that represents quantity of phosphorylated-GSK-313.
IC50 calculation—IC50 is the concentration of compound required to give 50% effect over the range of activity affected by the compound, between maximum (no compound) and minimum (excess level of compound) response control data. IC50 values were determined by fitting background corrected, dose response assay data to a 4 parameter logistic curve fit equation model with the minimum response set to zero. This was done using an in-house developed algorithm within the Origin graphing software package (OriginLab Corporation, Northampton, Mass., USA). […]

[1] abbreviates: MDA-MB-468 cells, 2 hours compound incubation, mean IC50, read-out: Cell pGSK3b IC50.
The mark [2] stands for this setting: MDA-MB-468, 2 h, read-out: Cell pGSK3b IC50.

Like-named read-outs stand apart in the source and are kept apart here.

Turning to `NC1(c2nc3c(-c4cncc(F)c4)cccc3[nH]2)CCN(c2ncnc3[nH]ccc23)CC1` [Example 96, 4-[4-(5-fluoropyridin-3-yl)-1H-benzimidazol-2-yl]-1-(7H-pyrrolo[3,2-e]pyrimidin-4-yl)piperidin-4-amine], under setting [1], the IC50 was 44 nM. Still for that read-out and setting: for `NC1(c2nc3c(-c4cccc(S(N)(=O)=O)c4)cccc3[nH]2)CCN(c2ncnc3[nH]ccc23)CC1` [Example 94, 3-[2-[4-amino-1-(7H-pyrrolo[3,2-e]pyrimidin-4-yl)piperidin-4-yl]-1H-benzimidazol-4-yl]benzenesulfonamide] the value was 47 nM.

As for `NC1(c2nc3c(-c4ccco4)cccc3[nH]2)CCN(c2ncnc3[nH]ccc23)CC1` [Example 87, 4-[7-(2-furyl)-1H-benzimidazol-2-yl]-1-(7H-pyrrolo[2,3-d]pyrimidin-4-yl)piperidin-4-amine], the IC50 under setting [1] worked out at 220 nM.

In the case of `CS(=O)(=O)c1cccc(-c2cccc3[nH]c(C4(N)CCN(c5ncnc6[nH]ccc56)CC4)nc23)c1` [Example 95, 4-[4-(3-methylsulfonylphenyl)-1H-benzimidazol-2-yl]-1-(7H-pyrrolo[3,2-e]pyrimidin-4-yl)piperidin-4-amine], the IC50 under setting [1] worked out at 49 nM. The same measure, in the same setting: for `CCN(CC)S(=O)(=O)c1ccc2[nH]c(C3(N)CCN(c4ncnc5[nH]ccc45)CC3)nc2c1` [Example 59, 2-(4-amino-1-(7H-pyrrolo[2,3-d]pyrimidin-4-yl)piperidin-4-yl)-N,N-diethyl-1H-benzo[d]imidazole-5-sulfonamide] the value was 1900 nM; for `COc1ccccc1-c1cccc2[nH]c(C3(N)CCN(c4ncnc5[nH]ccc45)CC3)nc12` [Example 80, 4-[4-(2-methoxyphenyl)-1H-benzimidazol-2-yl]-1-(7H-pyrrolo[2,3-d]pyrimidin-4-yl)piperidin-4-amine], 64 nM; for `CS(=O)(=O)c1ccc(-c2cccc3[nH]c(C4(N)CCN(c5ncnc6[nH]ccc56)CC4)nc23)cc1` [Example 83, 4-{4-[4-(methylsulfonyl)phenyl]-1H-benzimidazol-2-yl}-1-(7H-pyrrolo[2,3-d]pyrimidin-4-yl)piperidin-4-amine], 47 nM.

Take `NCC1(c2nc3cc(Cl)ccc3[nH]2)CCN(c2ncnc3[nH]cnc23)CC1` [Example 66G, (4-(5-chloro-1H-benzo[d]imidazol-2-yl)-1-(9H-purin-6-yl)piperidin-4-yl)methanamine]: the IC50 under setting [1] is 110 nM. The same measure, in the same setting: in the case of `COc1ccc(-c2ccc3[nH]c(C4(N)CCN(c5ncnc6[nH]ccc56)CC4)nc3c2)cc1` [Example 73, 4-[5-(4-methoxyphenyl)-1H-benzimidazol-2-yl]-1-(7H-pyrrolo[2,3-d]pyrimidin-4-yl)piperidin-4-amine] it was 3300 nM; in that of `CS(=O)(=O)c1cccc(-c2ccc3[nH]c(C4(N)CCN(c5ncnc6[nH]ccc56)CC4)nc3c2)c1` [Example 75, 4-[5-(3-methylsulfonylphenyl)-1H-benzimidazol-2-yl]-1-(7H-pyrrolo[2,3-d]pyrimidin-4-yl)piperidin-4-amine], 5100 nM; in that of `NC1(c2nc3c(-c4ccccc4)cccc3[nH]2)CCN(c2ncnc3[nH]cnc23)CC1` [Example 103, 4-(4-Phenyl-1H-benzimidazol-2-yl)-1-(9H-purin-6-yl)piperidin-4-amine], 33 nM. Same read-out and setting: in the case of `Cc1ccc2[nH]c(C3(CN)CCN(c4ncnc5[nH]ccc45)CC3)nc2c1` [Example 97, (4-(5-methyl-1H-benzo[d]imidazol-2-yl)-1-(7H-pyrrolo[2,3-d]pyrimidin-4-yl)piperidin-4-yl)methanamine] it was 85 nM. In the case of `COc1ccc(-c2cccc3[nH]c(C4(N)CCN(c5ncnc6[nH]ncc56)CC4)nc23)cc1` [Example 109, 4-[4-(4-methoxyphenyl)-1H-benzo[d]imidazol-2-yl)-1-(1H-pyrazolo[3,4-d]pyrimidin-4-yl)piperidin-4-amine], under setting [1], the IC50 worked out at 650 nM. With `NC1(c2nc3cc(SC(F)(F)F)ccc3[nH]2)CCN(c2ncnc3[nH]ccc23)CC1` [Example 65, 1-(7H-Pyrrolo[2,3-d]pyrimidin-4-yl)-4-(5-(trifluoromethylthio)-1H-benzo[d]imidazol-2-yl)piperidin-4-amine], the concentration for half-maximal inhibition (IC50) under setting [2] came to 420 nM. Turning to `NC1(c2nc3cc(Cl)c(Cl)cc3[nH]2)CCN(c2ncnc3[nH]ccc23)CC1` [Example 53, 4-(5,6-Dichloro-1H-benzoimidazol-2-yl)-1-(7H-pyrrolo[2,3-d]pyrimidin-4-yl)-piperidin-4-ylamine], the IC50 under setting [1] was 1800 nM. Same read-out and setting: for `Cn1cc(-c2cccc3[nH]c(C4(CN)CCN(c5ncnc6[nH]ccc56)CC4)nc23)cn1` [Example 100] the value was 14 nM; for `CS(=O)(=O)c1ccc(-c2cccc3[nH]c(C4(N)CCN(c5ncnc6[nH]cnc56)CC4)nc23)cc1` [Example 105, 4-[4-(4-methylsulfonylphenyl)-1H-benzimidazol-2-yl]-1-(9H-purin-6-yl)piperidin-4-amine], 200 nM. On to `NC1(c2nc3cccnc3[nH]2)CCN(c2ncnc3[nH]ccc23)CC1` [Example 55, 4-(3H-imidazo[5,4-b]pyridin-2-yl)-1-(7H-pyrrolo[2,3-d]pyrimidin-4-yl)piperidin-4-amine], for which the IC50 under setting [1] amounted to 2900 nM. As to `NC1(c2nc3ccc(Cl)cc3[nH]2)CCN(c2ncnc3[nH]ccc23)CC1` [Example 13, 4-(6-chloro-1H-benzoimidazol-2-yl)-1-(7H-pyrrolo[2,3-d]pyrimidin-4-yl)-piperidin-4-ylamine], the IC50 under setting [1] came to 660 nM.

As to `CS(=O)(=O)c1ccccc1-c1cccc2nc(C3(N)CCN(c4ncnc5[nH]ccc45)CC3)[nH]c12` [Example 112, 4-[7-(2-methylsulfonylphenyl)-1H-benzimidazol-2-yl]-1-(7H-pyrrolo[3,2-e]pyrimidin-4-yl)piperidin-4-amine], the IC50 under setting [1] amounted to 300 nM. With `COc1ccc(Oc2ccc3[nH]c(C4(N)CCN(c5ncnc6[nH]cnc56)CC4)nc3c2)cc1` [Example 63, 4-(5-(4-methoxyphenoxy)-1H-benzo[d]imidazol-2-yl)-1-(9H-purin-6-yl)piperidin-4-amine], the IC50 under setting [2] is above 960 nM. `NCC1(c2nc3cc(Cl)ccc3[nH]2)CCN(c2ncnc3[nH]ccc23)CC1` [Example 67B, (4-(5-chloro-1H-benzo[d]imidazol-2-yl)-1-(7H-pyrrolo[2,3-d]pyrimidin-4-yl)piperidin-4-yl)methanamine]: the IC50 under setting [1] amounted to 62 nM. Same read-out and setting: in the case of `NC1(c2nc3cc(-c4ccco4)ccc3[nH]2)CCN(c2ncnc3[nH]ccc23)CC1` [Example 72] it was 3000 nM; in that of `COc1ccc(-c2cccc3[nH]c(C4(N)CCN(c5ncnc6[nH]ccc56)CC4)nc23)cc1` [Example 82, -[4-(4-methoxyphenyl)-1H-benzimidazol-2-yl]-1-(7H-pyrrolo[2,3-d]pyrimidin-4-yl)piperidin-4-amine], 120 nM; in that of `NC1(c2nc3cc(-n4ccnc4)ccc3[nH]2)CCN(c2ncnc3[nH]ccc23)CC1` [Example 56, 4-(5-imidazol-1-yl-1H-benzimidazol-2-yl)-1-(7H-pyrrolo[2,3-d]pyrimidin-4-yl)piperidin-4-amine], 5500 nM. The same measure, in the same setting: in the case of `CS(=O)(=O)c1ccc(-c2ccc3[nH]c(C4(N)CCN(c5ncnc6[nH]ccc56)CC4)nc3c2)cc1` [Example 78, 4-[5-(4-methylsulfonylphenyl)-1H-benzimidazol-2-yl]-1-(7H-pyrrolo[2,3-d]pyrimidin-4-yl)piperidin-4-amine] it was 16000 nM.

Source of the values: US20100093748A1, “SUBSTITUTED PIPERIDINES HAVING PROTEIN KINASE INHIBITING ACTIVITY” (ASTEX THERAPEUTICS LIMITED, priority 2006, published 2010).
